{"source": "paper PMC9352912", "about": "“Oncogenic KRAS G12C: Kinetic and redox characterization of covalent inhibition” (The Journal of Biological Chemistry, 2022)", "key": {"[1]": {"molecular_target": "T1, KRAS^CCLW (KRAS^G12C/C51S/C80L/C118S/Y137W) (Homo sapiens, UniProt P01116, C118S/C51S/C80L/G12C/Y137W)", "T1 construct": "Truncated human KRAS4B (residues 2–169) was expressed from a modified pET21 bacterial expression vector; 6xHis (followed by TEV site) (N, cleaved yes); made in house; host or cells: Rosetta2 (DE3) cells (E. coli)", "test": "Stopped-flow fluorescence kinetics of KRAS^CCLW with covalent inhibitor (binding and ligation)", "conditions": "for k +1: global fit KinTek Explorer, kon of reversible binding; for k +2 / k −1: global fit; for k +2: kinact; for k −1: koff of reversible binding", "method": "Note that in this kinetic model, k+1 represents kon and k-1 represents koff for reversible inhibitor binding, and Kd can be calculated from the ratio of the two. In addition, k+2 represents kinact and k-2, not shown in the model, is 0 due to the irreversible formation of the covalent bond between KRAS and inhibitor.\nThe KRAS was first reduced by adding 10 mM DTT and incubating at 20 °C for 30 min and then passed over a PD-10 desalting column to remove excess DTT, then the protein was exchanged into a buffer containing 10 mM Hepes at pH 7.5, with 50 mM NaCl, 5 mM MgCl2, and 10 μM GDP. Samples were loaded into the syringes of an Applied Photophysics SX.18 MV stopped-flow spectrophotometer and allowed to equilibrate to 5 or 20 °C. The fluorescence changes were recorded after sample mixing via monitoring at 90° relative to incident light with excitation at 280 nm and emission >320 nm. Separate time courses were used to investigate the fast initial changes (0.2–1 s) and the much slower phase (100–1000 s) of decreasing fluorescence signal. Data were analyzed using Applied Photophysics software and fit to single (or double) exponentials as appropriate. To obtain rate constants and inhibition parameters, data from all (four or more) inhibitor concentrations at a given pH and 5 °C were fit globally using KinTek Global Kinetic Explorer (version 10.2.0) ([20], [38]) using Equation 2 (both steps are taken to be reversible, but the second step returns a reverse rate that is essentially 0). […] Briefly, data were fit to Equation 3 using Kaleidagraph software, version 4.5.4:(3) y=(kinact/Ki)×/(1+((kinact/Ki)×/kinact))"}, "[2]": {"system": "KRAS^CCLW", "test": "ESI-TOF mass spectrometry of adduct formation with reduced or H2O2-oxidized KRAS^CCLW", "conditions": "for reaction with sulfenic acid form of protein: H2O2-oxidized KRAS^CCLW (-SOH)", "method": "The samples were buffer exchanged using a P6 Bio-Gel column that was pre-equilibrated with 50 mM ammonium bicarbonate (ABC). […] Oxidation was achieved by addition of 1 to 10 molar equivalents of H2O2 for 10 min at 25 °C with 250 RPM shaking using a thermomixer. The reaction was quenched by passing through a P6 Bio-Gel spin column pre-equilibrated with ABC.\nSamples were introduced via direct infusion at a flow rate of 20 μl/min using a syringe pump. Mass spectra were acquired over the range of 600 − 3200 m/z and then averaged and deconvoluted, and ion abundance was quantified using Agilent MassHunter Workstation software vB.02.00. Relative ion abundances were used to determine the reaction progress."}, "[3]": {"test": "Inhibitor solubility in MHT reaction buffer", "conditions": "MHT buffer with 3% dimethyl sulfoxide"}, "[4]": {"molecular_target": "T2, Cys12 (UniProt position 12, VVVGACGVGKS)", "test": "kinetics", "conditions": "50 mM NaCl, 5 mM MgCl2, MHT buffer: 50 mM MES, 50 mM Hepes, 50 mM Tris, Pre-reduced protein reacting with ARS-853 (inhibitor-bound encounter complex), GDP form"}, "[5]": {"molecular_target": "T2, Cys12", "test": "NMR", "conditions": "25 °C, 40 mM NaCl, 5 mM MgCl2, 20 mM Tris-Maleate, 5 mM MgCl2, 20 μM GDP, GDP-bound, inhibitor-free, folded"}, "[6]": {"molecular_target": "T2, Cys12", "test": "chemical modification"}}}
{"compound": "C=CC(=O)N1CC(N2CCN(C(=O)CNc3cc(C4(C)CC4)c(Cl)cc3O)CC2)C1", "note": "[ARS-853]", "values": [{"measurement": "k +1", "setting": "[1]; pH 7.0, 5 °C", "result": "1.35 ± 0.01"}, {"measurement": "k +2", "setting": "[1]; pH 7.0, 5 °C", "result": "0.0073 ± 0.0004"}, {"measurement": "k −1", "setting": "[1]; pH 7.0, 5 °C", "result": "49.7 ± 0.3"}, {"measurement": "k +1", "setting": "[1]; pH 7.5, 5 °C", "result": "1.69 ± 0.01"}, {"measurement": "k +2", "setting": "[1]; pH 7.5, 5 °C", "result": "0.0169 ± 0.0005"}, {"measurement": "k −1", "setting": "[1]; pH 7.5, 5 °C", "result": "51.1 ± 0.3"}, {"measurement": "k +1", "setting": "[1]; pH 8.0, 5 °C", "result": "1.50 ± 0.01"}, {"measurement": "k +2", "setting": "[1]; pH 8.0, 5 °C", "result": "0.038 ± 0.006"}, {"measurement": "k −1", "setting": "[1]; pH 8.0, 5 °C", "result": "51.2 ± 0.3"}, {"measurement": "k +1", "setting": "[1]; pH 8.5, 5 °C", "result": "1.45 ± 0.01"}, {"measurement": "k +2", "setting": "[1]; pH 8.5, 5 °C", "result": "0.099 ± 0.001"}, {"measurement": "k −1", "setting": "[1]; pH 8.5, 5 °C", "result": "61.7 ± 0.4"}, {"measurement": "k +1", "setting": "[1]; pH 9.0, 5 °C", "result": "0.976 ± 0.009"}, {"measurement": "k +2", "setting": "[1]; pH 9.0, 5 °C", "result": "0.280 ± 0.003"}, {"measurement": "k −1", "setting": "[1]; pH 9.0, 5 °C", "result": "75.1 ± 0.4"}, {"measurement": "reaction with sulfinic acid form of protein", "setting": "[2]; H2O2-oxidized KRAS^CCLW (-SO2H)", "result": "did not react"}, {"measurement": "reaction with sulfenic acid form of protein", "setting": "[2]", "result": "did not react"}, {"measurement": "time to adduct formation with reduced protein", "setting": "[2]; reduced KRAS^CCLW (-SH), […] excess of inhibitor, 25 °C", "result": "≤ 5", "unit": "min"}, {"measurement": "inhibitor solubility (no problem encountered up to)", "setting": "[3]", "result": "≥ 300", "unit": "µM"}]}
{"compound": "CC1(C)CC(=O)CC(=O)C1", "note": "[dimedone]", "values": [{"measurement": "reaction with sulfenic acid form of protein", "setting": "[2]", "result": "reacted rapidly"}]}
{"compound": "GTPase KRas (KRAS4B) G12C Cys-light Y137W (KRAS-CCLW) (Homo sapiens; G12C;C51S;C80L;C118S;Y137W)", "values": [{"measurement": "pKa", "setting": "[4]; 5 °C", "result": "8.15 ± 0.13"}, {"measurement": "pKa", "setting": "[4]; 20 °C", "result": "8.21 ± 0.09"}]}
{"compound": "GTPase KRas (KRAS4B) G12C/C118S (Homo sapiens; G12C;C118S)", "values": [{"measurement": "pKa", "setting": "[5]", "result": "7.6 ± 0.4"}, {"measurement": "pKa", "setting": "[6]; 50 mM NaCl, 5 mM MgCl2, 15 mM Hepes, 15 mM MES, 5 mM MgCl2, 50 mM NaCl, 200 μM DTPA, N2-sparged, DTT removed, Reduced thiol, inhibitor-free. Nucleotide state not stated for this assay.", "result": "7.6 ± 0.1"}]}
{"compound": "GTPase KRas G12C (as studied by Hansen et al. 2018) (Homo sapiens; G12C)", "values": [{"measurement": "pKa", "setting": "[6]; KRAS G12C reacting with N-benzylacrylamide, cited from earlier work", "result": 9.2}, {"measurement": "pKa", "setting": "[6]; inhibitor-free KRAS G12C, cited from earlier work", "result": "9.0 ± 0.2"}]}
